From paper PMC7764243, “Alterins Produced by Oyster-Associated Pseudoalteromonas Are Antibacterial Cyclolipopeptides with LPS-Binding Activity” (Marine Drugs, 2020) come the findings set out here.

Assay [1] relates to A. hydrophila CIP 7614. Type of assay: cell-based, Aeromonas hydrophila. As to conditions: A. hydrophila CIP 7614; broth microdilution, 0.1 to 100 µM, 1.10^6 UFC/mL, 48 h, read by unaided eye. As to the method:
(§1) Antibacterial activity was assayed against a panel of micro-organisms including human and aquaculture pathogenic bacterial species. MICs were performed and defined according to internationally recognized standards (CLSI [21]). Polymyxin B (PMB), an antibiotic CLP produced by Paenibacillus polymyxa, was used as positive control. The major produced alterins, i.e., alt_952, alt_954, alt_970 and alt_980 were assayed against the whole panel of target cells while the minor ones were only tested against a few bacterial strains (Table 2).
(§2) The bacterial strains Aeromonas caviae CIP 7616, Aeromonas hydrophila CIP 7614, Escherichia coli ML35, Escherichia coli SBS 363, Salmonella enterica CIP 8297 and Yersinia ruckeri ATCC 29473 were grown in Tryptic Soy Broth. The marine bacterial strains Vibrio crassostreaeJ2–9, Vibrio tasmaniensisLGP32, Vibrio tapetis CECT 4600 were grown in Marine Broth. All of them were cultivated at optimal temperature according to ATCC and CIP specifications. The strain Vibrio parahaemolyticus13-028A/3 was grown at 28 °C in Tryptic Soy Broth supplemented in NaCl (20 g.L^−1) according to [47]. The strains Pseudoalteromonas sp. hCg-6 and hCg-42 were cultured using a synthetic medium containing: 17.11 g sucrose, 30 g sea salts (Sigma-S9883), 7.6 g K2HPO4, 3 g KH2PO4 and 20 mL MEM 50X (Dulbecco) per liter. The cultures were grown at 18 °C for 72 h with shaking (100 rpm).
(§3) MICs were determined using broth microdilution method according to [21]. To resume, antibacterial compounds ranging from 0.1 to 100 µM were assayed against the target bacteria in mid-logarithmic phase culture (1.10^6 UFC.mL^−1) in adapted culture medium according to the strain. MICs were examined by unaided eye after a 48h-incubation time at the optimal temperature growth. The lipopeptide PMB (Sigma-P4932) was used as antibiotic control.
A general note: Broth dilution looks for growth in wells or tubes with falling amounts of substance.

Assay [2] concerns Y. ruckeri ATCC 29473. Type of assay: cell-based, Yersinia ruckeri. The settings on record: Y. ruckeri ATCC 29473; broth microdilution, 0.1 to 100 µM, 1.10^6 UFC/mL, 48 h, read by unaided eye. As to the method: as §1, §2, §3
In assay [3] the test system is A. caviae CIP 7616. Type of assay: cell-based, Aeromonas caviae. As to conditions: broth microdilution, 0.1 to 100 µM, 1.10^6 UFC/mL, 48 h, read by unaided eye. Here is the method: as §1, §2, §3
Assay [4] deals with S. enterica CIP 8297. Type of assay: cell-based, Salmonella enterica. The settings on record: broth microdilution, 0.1 to 100 µM, 1.10^6 UFC/mL, 48 h, read by unaided eye. As to the method: as §1, §2, §3
Assay [5] deals with E. coli SBS363. Type of assay: cell-based, Escherichia coli. The settings on record: E. coli SBS363 (short-chain LPS); broth microdilution, 0.1 to 100 µM, 1.10^6 UFC/mL, 48 h, read by unaided eye. Here is the method:
as §1, §2, §3

Assay [6] concerns E. coli ML35. Type of assay: cell-based, Escherichia coli. The settings on record: E. coli ML35 (long-chain LPS); broth microdilution, 0.1 to 100 µM, 1.10^6 UFC/mL, 48 h, read by unaided eye. Here is the method:
as §1, §2, §3

Assay [7] concerns P. aeruginosa ATCC 27853. It counts as cell-based, Pseudomonas aeruginosa. As to conditions: P. aeruginosa ATCC 27853; broth microdilution, 0.1 to 100 µM, 1.10^6 UFC/mL, 48 h, read by unaided eye. Here is the method: as §1, §3
Assay [8] has as its system Pseudoalteromonas hCg-6. It counts as cell-based, Pseudoalteromonas sp. The settings on record: Pseudoalteromonas hCg-6 (producing strain); broth microdilution, 0.1 to 100 µM, 1.10^6 UFC/mL, 48 h, read by unaided eye. Here is the method: as §1, §2, §3
Assay [9] deals with Pseudoalteromonas hCg-42. It counts as cell-based, Pseudoalteromonas sp. As to conditions: Pseudoalteromonas hCg-42 (producing strain); broth microdilution, 0.1 to 100 µM, 1.10^6 UFC/mL, 48 h, read by unaided eye. Here is the method: as §1, §2, §3
Assay [10] relates to V. tasmaniensis LGP 32. It counts as cell-based, Vibrio tasmaniensis. The settings on record: V. tasmaniensis LGP 32; broth microdilution, 0.1 to 100 µM, 1.10^6 UFC/mL, 48 h, read by unaided eye. As to the method: as §1, §2, §3
The test system of assay [11] is V. parahaemolyticus 13-028A/3. Type of assay: cell-based, Vibrio parahaemolyticus. The settings on record: broth microdilution, 0.1 to 100 µM, 1.10^6 UFC/mL, 48 h, read by unaided eye. Here is the method:
as §1, §2, §3

Assay [12] deals with V. harveyi ORM4. It counts as cell-based, Vibrio harveyi. As to conditions: V. harveyi ORM4; broth microdilution, 0.1 to 100 µM, 1.10^6 UFC/mL, 48 h, read by unaided eye. Here is the method:
as §1, §3

Assay [13] concerns V. tasmaniensis LGP32. In words: Viability (cultivability, CFU count) in seawater. As to conditions: 20 µM, 4 h incubation in sterile seawater, inoculum 1.10^6 UFC/mL, plated in duplicate. Type of assay: cell-based, Vibrio tasmaniensis. As to the method: As a first step, we have measured the antimicrobial activity of alt_952, alt_954, alt_970 and alt_980 against V. tasmaniensis LGP32 in seawater after a 4 hour-long incubation. […] The effects on membrane were also investigated under the same experimental conditions using live/dead bacterial viability kit for flow cytometry (Figure 6). A net cultivability loss of V. tasmaniensis (2-log reduction) was observed when incubated with alt_954 and alt_980 indicative of a bactericidal effect (Figure 7A). In these conditions, V. tasmaniensis was much less affected by alt_970 (1-log reduction) and not by alt_952 (Figure 7A).
[…] After a 4 h-long incubation, viable bacteria were counted. Diluted samples (50 µL) in sterile seawater were spread in duplicate on appropriate medium. Cultivable bacterial concentration (CFU mL^−1) was determined after overnight incubation at optimal growth temperature.

Assay [14] is described as follows: LPS binding, QCL-1000 chromogenic Limulus Amoebocyte Lysate (LAL) assay. Also noted: species or system Escherichia coli. As to conditions: LPS 1 EU/mL pre-incubated with CLPs 0.01 to 10 µM, 15 min, 37 °C. The source says:
(§4) To gain insights into LPS-alterin interactions, we used an endotoxin detection assay, the QCL-1000^TM Endpoint chromogenic Limulus Amoebocyte Lysate (LAL) assay (Lonza). We compared alt_954, alt_970 and alt_980 for their ability to bind LPS from E. coli O111:B4. All alterins bound to LPS in a dose-dependent manner, as indicated by the reduction of biologically active LPS with increasing alterins concentrations (Figure 4A). […] To examine alterin LPS-binding properties in more detail, we performed a surface plasmon resonance (SPR) assay using the Biacore technology (GE Healthcare). The SPR binding measurements were performed using the alt_954 and alt_970. PMB was used as a positive control. The CLPs were immobilized to a CM5 sensor chip surface and titrated with LPS. […] The dose-dependent effect observed (Figure 4B) highlights the LPS-binding properties of the alterins. Both LPS-binding assays, i.e., LAL and SPR, are fully agreeing for alt_954. Moreover, the LPS-binding properties of alterins followed the same general pattern as that of antibacterial activity.
The CLPs were assayed for their LPS-binding properties by using the QCL-1000 Limulus Amoebocyte Lysate kit (LAL-Lonza, Bâle, Switzerland) according to manufacturer instructions. […] Free LPS was then quantified according to the manufacturer’s instructions. […]

Assay [15] has as its system V. tapetis CECT 4600T. It counts as cell-based, Vibrio tapetis. The settings on record: V. tapetis CECT 4600T; broth microdilution, 0.1 to 100 µM, 1.10^6 UFC/mL, 48 h, read by unaided eye. As to the method:
as §1, §2, §3

Assay [16] can be described thus: LPS binding, surface plasmon resonance (Biacore). Also noted: species or system Escherichia coli. The settings on record: CLPs immobilized (500–600 RU) on CM5 chip, titrated with LPS, 25 °C, 10 mM Hepes pH 7.4, 150 mM NaCl, 3 mM EDTA.
Excerpt: as §4
Surface plasmon resonance experiments were carried out at 25 °C using a BIACORE 3000 apparatus (GE Healthcare, Uppsala, Sweden). […] The binding level in RU was measured at the end of the binding after normalization to the same CLP coated level.
Background: Surface plasmon resonance follows binding to a sensor surface in real time, without labels.

Each structure is given as a SMILES string. Converted amounts (≈) assume the structure as drawn. *1 amine or outer side, *2 acyl side, *3 side chain or, on linkers, in order; H or OH if unused. Where a SMILES comes first, the peptide text is derived from it. Bridges are numbered along the chain shown (N, C = ends). [ ]: non-standard residue; d: D form. The star is where a group is joined. ξ: configuration not given here. Dab(3ξ-OH) = O=C([C@@H](N[*:1])C(O)CN[*:3])[*:2]; Decanoyl(3ξ-OH) = CCCCCCCC(O)CC(=O)*; X1 = C/C=C(/N[*:1])C(=O)[*:2]; Decanoyl = CCCCCCCCCC(=O)*; Dab = NCC[C@H](N)C(=O)O

The MIC is the least concentration at which growth counts as inhibited. Low values mean inhibition by little substance, high ones a need for much substance.

On to `C/C=C1/NC(=O)[C@@H](NC(=O)CCCCCCCCC)C(O)CNC(=O)[C@H](C(O)CN)NC(=O)[C@H](C(O)CN)NC(=O)[C@H](CCCNC(=N)N)NC(=O)[C@H](CC(C)C)NC(=O)[C@H](CCN)NC1=O` (stereo partly shown) [alt_954] (Decanoyl-[Dab(3ξ-OH)][X1][Dab]LR[Dab(3ξ-OH)][Dab(3ξ-OH)]; lactam 1-C), for which the MIC in assay [1] came to 2.7 µM (≈ 2.58 µg/mL); in assay [2], 0.3 µM (≈ 0.287 µg/mL); in assay [3], 5.5 µM (≈ 5.25 µg/mL); in [4] it was 0.7 µM (≈ 0.669 µg/mL); in assay [5] it was 0.2 µM (≈ 0.191 µg/mL); in [6] it was 1.4 µM (≈ 1.34 µg/mL). For the same compound, the MIC in assay [7] is on record as 22 µM (≈ 21 µg/mL); in assay [8], above 100 µM; in assay [9] it was above 100 µM; in assay [10] it was 2.7 µM (≈ 2.58 µg/mL); in assay [11] it was 6.25 µM (≈ 5.97 µg/mL); in [12] it was 1.4 µM (≈ 1.34 µg/mL). In addition, in [15], the MIC is above 100 µM. For the same compound, the “cultivability loss of V. tasmaniensis (log reduction of CFU)” value in [13] was determined as 2 log. For the same compound, the “LPS binding (reduction of biologically active LPS, LAL assay)” value in assay [14] is recorded as “more efficiently than alt_970”.

As to `C/C=C1/NC(=O)[C@@H](NC(=O)CC(O)CCCCCCC)C(O)CNC(=O)[C@H](C(O)CN)NC(=O)[C@H](C(O)CN)NC(=O)[C@H](CCCNC(=N)N)NC(=O)[C@H](CC(C)C)NC(=O)[C@H](CCN)NC1=O` (stereo partly shown) [alt_970] ({Decanoyl(3ξ-OH)}-[Dab(3ξ-OH)][X1][Dab]LR[Dab(3ξ-OH)][Dab(3ξ-OH)]; lactam 1-C), the “LPS binding response (SPR, RU)” value in assay [16] is “the response was halved”. Also, the MIC in [2] turned out to be 1.1 µM (≈ 1.07 µg/mL); in assay [3], 17.6 µM (≈ 17.1 µg/mL); in [4], 1.1 µM (≈ 1.07 µg/mL); in [5] it was 0.1 µM (≈ 0.0971 µg/mL); in assay [6], 35 µM (≈ 34 µg/mL); in [7], 35.2 µM (≈ 34.2 µg/mL). Moreover, the minimal inhibitory concentration (MIC) was above 100 µM in [8]; above 100 µM in assay [9]; 8.8 µM (≈ 8.55 µg/mL) in [10]; 6.25 µM (≈ 6.07 µg/mL) in assay [11]; above 100 µM in assay [15]. Besides, in assay [13], the “cultivability loss of V. tasmaniensis (log reduction of CFU)” value was found to be 1 log.
